Experimental data as given in patent publication US5459152A, “Platelet activating factor antagonists” (Abbott Laboratories, priority 1993, dated 1995).
Like-named read-outs stand apart in the source and are kept apart here.

Target: T1, PAF receptor (Oryctolagus cuniculus, UniProt G1TEI7)
T1 construct: platelet membranes where prepared by centrifugation and washing; tissue Pel-Freez (Rogers, AR) (whole rabbit blood); host or cells: rabbit platelet membranes
Assay: PAF receptor binding assay ([3H]C18-PAF, rabbit platelet membranes)
Details: read-out: PAF Receptor Binding Activity K1
Description: The ability of representative compounds of the present invention to inhibit PAF activity was determined in an in vitro test using the following method.
Citrated whole rabbit blood was obtained from Pel-Freez (Rogers, AR). Rabbit platelets where prepared by centrifugation and washing. The platelets where lysed by freeze-thawing and sonication; platelet membranes where prepared by centrifugation and washing. Final membrane preparations where stored frozen in 10 mM Tris/5 mM MgCl2 /2 mM EDTA (TME buffer, pH 7.0) with 0.25 M sucrose added for membrane stabilization.
The final volume of the assay was 100 μl. The assay was conducted in Millititre-GV™ (Millipore Corp.) filtration plates; incubation time was for 60 minutes at room temperature (22°-23° C.). "Specific binding" was operationally defined as the arithmetic difference between "total binding" of 0.6 nM [^3 H]C18 -PAF (in the absence of added PAF) and "nonspecific binding" (in the presence of 1 μM PAF). After the prescribed incubation, platelet membranes where filtered under vacuum and washed with 1 millilitre of "binding buffer". The filters was dried and removed. The bound radioactivity was quantitated with a Berthold TLC-Linear Analyzer model LB2842.
Experiments where repeated at least once.

[1] = inhibition of specific binding of 0.6 nM [3H]C18-PAF to rabbit platelet membranes, 60 min, room temperature, Ki calculated from IC50 by Cheng and Prusoff

T1 sequence (G1TEI7 1-342): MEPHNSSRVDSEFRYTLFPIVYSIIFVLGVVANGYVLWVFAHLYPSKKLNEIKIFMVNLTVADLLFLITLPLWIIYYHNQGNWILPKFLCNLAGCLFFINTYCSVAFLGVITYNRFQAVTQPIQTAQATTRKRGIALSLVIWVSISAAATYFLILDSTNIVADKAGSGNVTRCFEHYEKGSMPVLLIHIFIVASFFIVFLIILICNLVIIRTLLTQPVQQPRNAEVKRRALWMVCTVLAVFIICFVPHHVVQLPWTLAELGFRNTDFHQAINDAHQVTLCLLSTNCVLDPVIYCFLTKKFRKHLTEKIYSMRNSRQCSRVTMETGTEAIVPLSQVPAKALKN

Row | Compound | Ki [nM] | Ki [1] [nM]
1 | CC(=O)OC[n+]1cccc(C2SCc3c(C(=O)c4cn(C(=O)N(C)C)c5cc(-c6ccc(F)cc6)ccc45)ccn32)c1 (stereo not shown) [Example 92, 3-(1-Acetoxymethylpyridin-3-yl)-7-[1-N,N-dimethylcarbamoyl-6-(4-fluorophenyl)indol-3-ylcarbonyl]-1H,3H-pyrrolo[1,2-c]thiazole] | 19 | 
2 | CN(C)C(=O)Cn1cc(C(=O)c2ccn3c2CSC3c2ccc[n+]([O-])c2)c2ccc(-c3ccc(F)cc3)cc21 (stereo not shown) [Example 75, 3-(1-Oxide-pyridin-3-yl)-7-[1-(2-N,N-dimethylcarbamoylmethyl)-6-(4-fluorophenyl)indol-3-ylcarbonyl]-1H,3H-pyrrolo[1,2-c]thiazole] | 7.5 | 
3 | CC(C)(C)OC(=O)NCCn1cc(C(=O)c2ccn3c2CSC3c2cccnc2)c2ccc(-c3ccc(F)cc3)cc21 (stereo not shown) [Example 57] |  | 38
4 | CN(C(=O)n1cc(C(=O)c2ccn3c2CSC3c2cccnc2)c2ccc(OCc3ccccc3)cc21)c1ccccc1 (stereo not shown) [Example 20, 3-(Pyridin-3-yl)-7-(1-N-methyl-N-phenylcarbamoyl-6-phenylmethoxyindol-3-ylcarbonyl)-1H,3H-pyrrolo[1,2-c]thiazole] | 180 | 
5 | Cn1cc(C(=O)c2ccn3c2CSC3c2cccnc2)c2ccc(OCc3ccccc3)cc21 (stereo not shown) [Example 21, 3-(Pyridin-3-yl)-7-(1-methyl-6-phenylmethoxyindol-3-ylcarbonyl)-1H,3H-pyrrolo[1,2-c]thiazole] | 15 | 
6 | O=C(c1ccn2c1CSC2c1cccnc1)c1cn(Cc2nnn[nH]2)c2cc(-c3ccc(F)cc3)ccc12 (stereo not shown) [Example 97, 3-(Pyridin-3-yl)-7-[1-(1H-tetrazol-5-ylmethyl)-6-(4-fluorophenyl)indol-3-ylcarbonyl]-1H,3H-pyrrolo[1,2-c]thiazole] | 19 | 
7 | 3(1-Carbamoylamino-pyridin-3-yl)-7-[1-N,N-dimethylcarbamoyl-6-(4-fluorophenyl)indol-3-ylcarbonyl]-1H,3H-pyrrolo[1,2-c]thiazole [Example 77] |  | 100
8 | O=C(c1ccn2c1CSC2c1cccnc1)c1cn(C(=O)Oc2ccccc2)c2cc(OCc3ccccc3)ccc12 (stereo not shown) [Example 27, 3-[Pyridin-3-yl)-7-(1-carbophenoxy-6-phenylmethoxyindol-3-ylcarbonyl)-1H,3H-pyrrolo[1,2-c]thiazole] | 200 | 

Second part, led by results:

Row | Ki [nM] | Compound | Ki [1] [nM]
9 | 2800 | CN(C)C(=O)n1cc(C(=O)c2ccn3c2CSC3c2ccc[n+](C)c2)c2ccc(-c3ccccc3)cc21 (stereo not shown) [Example 33, 3-(1-methylpyridin-3-yl)-7-(1-N,N-dimethylcarbamoyl-6-phenylindol-3-ylcarbonyl)-1H,3H-pyrrolo[1,2-c]thiazole] | 
10 | 14 | CN(C)C(=O)n1cc(C(=O)c2ccn3c2CSC3c2ccc[n+]([O-])c2)c2ccc(-c3ccccc3)cc21 (stereo not shown) [Example 34, 3-(1-Oxide-pyridin-3-yl)-7-(1-N,N-dimethylcarbamoyl-6-phenylindol-3-ylcarbonyl)-1H,3H-pyrrolo[1,2-c]thiazole] | 
11 | 89 | CN(C)C(=O)n1cc(C(=O)c2ccn3c2CSC3c2cccnc2)c2ccc(Cl)cc21 (stereo not shown) [Example 65, 3-(Pyridin-3-yl)-7-(1-N,N-dimethylcarbamoyl-6-chloroindol-3-ylcarbonyl)-1H,3H-pyrrolo[1,2-c]thiazole] | 
12 | 75 | O=C(c1ccn2c1CSC2c1cccnc1)c1c[nH]c2cc(-c3ccc(F)cc3)ccc12 (stereo not shown) [Example 28, 3-(Pyridin-3-yl)-7-[6-(4-fluorophenyl)indol-3-ylcarbonyl]-1H,3H-pyrrolo[1,2-c]thiazole] | 
13 | 1100 | CC1(C)SC(c2cccnc2)n2ccc(C(=O)c3c[nH]c4cc(-c5ccc(F)cc5)ccc34)c21 (stereo not shown) [Example 36, 1,1-Dimethyl-3-(pyridin-3-yl)-7-[6-(4-fluorophenyl)indol-3-ylcarbonyl]-1H,3H-pyrrolo[1,2-c]thiazole] | 
14 | 20 | CN(C)C(=O)n1cc(C(=O)c2ccn3c2CSC3c2cccnc2)c2ccc(-c3ccc(C(=O)NN)cc3)cc21 (stereo not shown) [Example 91, 3-(1-Oxide-pyridin-3-yl)-7-[1-N,N-dimethylcarbamoyl-6-(4-hydrazinylcarbonylphenyl)indol-3-ylcarbonyl]-1H,3H-pyrrolo[1,2-c]thiazole] | 
15 | 1000 | COc1ccc(-c2ccc3c(C(=O)c4ccn5c4CSC5c4cccnc4)c[nH]c3c2)cc1 (stereo not shown) [Example 38, 3-(Pyridin-3-yl)-7-[6-(4-methoxyphenyl)indol-3-yl]carbonyl-1H,3H-pyrrolo[1,2-c]thiazole] | 
16 | 26 | CNC(=O)n1cc(C(=O)c2ccn3c2CSC3c2cccnc2)c2ccc(-c3ccc(OC)cc3)cc21 (stereo not shown) [Example 43, 3-(Pyridin-3-yl)-7-[1-N-methylcarbamoyl-6-(4-methoxyphenyl)indol-3-ylcarbonyl]-1H,3H-pyrrolo[1,2-c]thiazole] | 
